The supplement of paper PMC10307832

Tests used:
Experiment in all cases: relative viability (nuclei count vs DMSO), 5 days (fraction); higher = more cells survive
NCI-H1975 = tested on: NCI-H1975
Procedure, shortened: (§1)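 Lung cancer cell lines in 1536-well plates were dosed by pin tool the day after seeding, either with one drug alone or with a fixed anchor-drug dose plus five library-drug doses (not always all listed) in √10 steps. After 5 days, cells were fixed and their nuclei stained in one step (final 0.05% Triton X-100, 1% formaldehyde, 1 ug/ml Hoechst), then counted on 4× images. Relative viability is the nuclei count in treated wells divided by that in vehicle wells. Values are medians of duplicate plates.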

NCI-H1563 = tested on: NCI-H1563
Procedure, shortened: as §1

NCI-H596 = tested on: NCI-H596
Procedure, shortened: as §1

LOU-NH91 = tested on: LOU-NH91
Procedure, shortened: as §1

EMC-BAC-2 = tested on: EMC-BAC-2
Procedure, shortened: as §1

PC-3 [JPC-3] = tested on: PC-3 [JPC-3]
Procedure, shortened: as §1

LK-2 = tested on: LK-2
Procedure, shortened: as §1

A-427 = tested on: A-427
Procedure, shortened: as §1

SW 900 = tested on: SW 900
Procedure, shortened: as §1

NCI-H1755 = tested on: NCI-H1755
Procedure, shortened: as §1

NCI-H23 = tested on: NCI-H23
Procedure, shortened: as §1

## Nc1ccn([C@@H]2O[C@H](CO)[C@@H](O)[C@@H]2O)c(=O)n1 [Cytarabine] + Nc1nc2[nH]cc(CCc3ccc(C(=O)N[C@@H](CCC(=O)O)C(=O)O)cc3)c2c(=O)[nH]1 [Pemetrexed] (partner 0.2 µM)
NCI-H1975; first compound 0.005 µM
  relative viability: 0.255
NCI-H1975; first compound 0.01581 µM
  relative viability: 0.287
NCI-H1975; first compound 0.05 µM
  relative viability: 0.297
NCI-H1975; first compound 0.1581 µM
  relative viability: 0.28
NCI-H1975; first compound 0.5 µM
  relative viability: 0.266
NCI-H1563; first compound 0.005 µM
  relative viability: 0.823
NCI-H1563; first compound 0.01581 µM
  relative viability: 0.727
NCI-H1563; first compound 0.05 µM
  relative viability: 0.637
NCI-H1563; first compound 0.1581 µM
  relative viability: 0.505
NCI-H1563; first compound 0.5 µM
  relative viability: 0.44
NCI-H596; first compound 0.005 µM
  relative viability: 0.41
NCI-H596; first compound 0.01581 µM
  relative viability: 0.485
NCI-H596; first compound 0.05 µM
  relative viability: 0.472
NCI-H596; first compound 0.1581 µM
  relative viability: 0.379
NCI-H596; first compound 0.5 µM
  relative viability: 0.349
LOU-NH91; first compound 0.005 µM
  relative viability: 0.383
LOU-NH91; first compound 0.01581 µM
  relative viability: 0.395
LOU-NH91; first compound 0.05 µM
  relative viability: 0.379
LOU-NH91; first compound 0.1581 µM
  relative viability: 0.318
LOU-NH91; first compound 0.5 µM
  relative viability: 0.339
EMC-BAC-2; first compound 0.005 µM
  relative viability: 0.476
EMC-BAC-2; first compound 0.01581 µM
  relative viability: 0.446
EMC-BAC-2; first compound 0.05 µM
  relative viability: 0.31
EMC-BAC-2; first compound 0.1581 µM
  relative viability: 0.244
EMC-BAC-2; first compound 0.5 µM
  relative viability: 0.247
PC-3 [JPC-3]; first compound 0.005 µM
  relative viability: 1
PC-3 [JPC-3]; first compound 0.01581 µM
  relative viability: 0.914
PC-3 [JPC-3]; first compound 0.05 µM
  relative viability: 0.616
PC-3 [JPC-3]; first compound 0.1581 µM
  relative viability: 0.557
PC-3 [JPC-3]; first compound 0.5 µM
  relative viability: 0.716
LK-2; first compound 0.005 µM
  relative viability: 0.34
LK-2; first compound 0.01581 µM
  relative viability: 0.233
LK-2; first compound 0.05 µM
  relative viability: 0.11
LK-2; first compound 0.1581 µM
  relative viability: 0.091
LK-2; first compound 0.5 µM
  relative viability: 0.0936
A-427; first compound 0.005 µM
  relative viability: 0.745
A-427; first compound 0.01581 µM
  relative viability: 0.509
A-427; first compound 0.05 µM
  relative viability: 0.332
A-427; first compound 0.1581 µM
  relative viability: 0.27
A-427; first compound 0.5 µM
  relative viability: 0.253
SW 900; first compound 0.005 µM
  relative viability: 0.432
SW 900; first compound 0.01581 µM
  relative viability: 0.499
SW 900; first compound 0.05 µM
  relative viability: 0.441
SW 900; first compound 0.1581 µM
  relative viability: 0.179
SW 900; first compound 0.5 µM
  relative viability: 0.143
NCI-H1755; first compound 0.005 µM
  relative viability: 0.472
NCI-H1755; first compound 0.01581 µM
  relative viability: 0.453
NCI-H1755; first compound 0.05 µM
  relative viability: 0.381
NCI-H1755; first compound 0.1581 µM
  relative viability: 0.336
NCI-H1755; first compound 0.5 µM
  relative viability: 0.351
NCI-H23; first compound 0.005 µM
  relative viability: 0.611
NCI-H23; first compound 0.01581 µM
  relative viability: 0.527
NCI-H23; first compound 0.05 µM
  relative viability: 0.445
NCI-H23; first compound 0.1581 µM
  relative viability: 0.172
